Assay results as given in patent US9163018B2, “Method of treatment of age-related macular degeneration (AMD)” (Prana Biotechnology Limited, priority 2006, dated 2015).
Read-outs that look alike come from different tables or passages of the source.

Assays:
[1] = E Log D, chromatographic method; format: physicochemical; conditions: pH 7.4
Protocol: Effective Log D values were measured using a chromatographic method employing a SUPELCOSIL LC-ABZ column using an octanol saturated mobile phase at pH 7.4.

Aβ deposits = conditions: 9 weeks; for Tg Mice % difference from control in Amyloid plaque abundance / Tg Mice % difference from control in insoluble brain amyloid burden / Tg Mice % difference from control in soluble brain amyloid burden: daily oral gavage 30 mg/kg, 13-14 months old transgenic mice
[2] = molecular target: T1, Abeta:Zn (25:50 μM) Synthetic Aggregations (Homo sapiens, UniProt P05067); test: Disaggregation of Abeta:Zn synthetic aggregates (ThT fluorescence); format: biochemical; conditions: for Disaggregation % Aggregate reduction at 5 μM: 5 μM test compound; for EC50: Abeta:Zn 25:50 μM aggregates
T1 construct: PB Compound Mediated Dissolution of Aggregated Abeta 1-42; purchased Keck Laboratory, Yale University School of Medicine
Outline: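 Abeta1-42 (25 μM) with ZnCl2 (50 μM) and ThT (50 μM) in PBS pH 6.6 was preaggregated 24 h at 37 degrees with rotation. Aggregates were then exposed to compound (final 1-50 μM, DMSO) for 2 h at 37 degrees. ThT fluorescence was read at ex 450/em 480 nm.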

[3] = test system: Abeta in extract of post-mortem human AD brain tissue; test: BAS: human brain amyloid solubilization assay; format: biochemical; conditions: max effect across the concentration range, referenced to baseline PBS
Outline: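 Plaque-bearing post-mortem AD cortex homogenised in ice-cold PBS pH 7.4; soluble Aβ in 100,000×g supernatant, insoluble Aβ from resuspended pellet. Fractions run on Tris-Tricine SDS-PAGE, immunoblotted with W02, densitometry against synthetic Aβ40 standards.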

Aβ 1-42 = molecular target: T2, Aβ 1-42 (Homo sapiens, UniProt P05067); test: Fluorometric H2O2 assay (inhibition of Abeta H2O2 production); format: biochemical; conditions: concentration required to inhibit 50% of Abeta H2O2 production; read-out: H2O2 IC50
T2 construct: The reaction solutions contained Aβ 1-42 at concentrations
Outline: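 Copper-dependent Aβ H2O2 production measured fluorometrically with deacetylated dichlorofluorescein plus HRP in PBS, pH 7.4. Incubation 60 min at 37 C, test compound included in wells. H2O2 quantified against H2O2 standards.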

[4] = test system: primary cortical neuronal cultured cells; test: Test compound cytotoxicity, MTS assay, primary cortical neuronal cultures; format: cell-based, mouse; conditions: for Cytotox (% viable) Neuronal cells at 1 μM: 1 μM test compound; for Cytotox (% viable) Neuronal cells at 10 μM: 10 μM test compound
Outline: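 Primary cortical neurons were cultured five days in Neurobasal/B27, then exposed on day six to compounds (from 2.5 mM DMSO stocks) in medium minus antioxidants, in triplicate for 4 days at 37° C. Viability was measured by MTS, 2 h at 37° C, absorbance at 560 nm.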

[5] = Mice plasma concentration after oral dose; format: in vivo; conditions: for Mice plasma concentration: 30 min to 4 h after single or repeat oral dose of 30 mg/kg
[6] = test system: dityrosine oligomerization; test: CuTy: inhibition of dityrosine oligomerization; format: biochemical; conditions: referenced to in-house standard (set as 100% inhibition)
[7] = test system: M17 human neuroblastoma cells; test: Cytotoxicity, M17 human neuroblastoma cells; format: cell-based; conditions: for Cytotox (% viable) M17 cells at 1 μM: 1 μM test compound; for Cytotox (% viable) M17 cells at 10 μM: 10 μM test compound
Protocol: Assay 3. MTS Assay for Cell Viability
Cell viability is determined using the MTS assay. Culture medium is replaced with fresh neurobasal medium plus B27 supplements minus antioxidants. 1/10th volume MTS solution (Cell Titre 96 Aqueous One, Promega Corporation) and incubated at 37° C., 2 hrs. 200 microliter aliquots are measured with a spectrophotometer at 560 nm.

[8] = Toxicity, visual observations in mice; conditions: duration and visual observations
[9] = mouse, in vivo, 10 days
[10] = test system: metal ions in retinal drusen; test: Post mortem retina screening, ZP1 zinc labeling of Bruch membrane; conditions: 15 hours incubation; TPEN 100 μM, PB-1033 100 and 250 μM; 10 μM ZP1
Protocol: Post Mortem Screening The BAS assay is adopted for post mortem retina. Using a trephine, 6 mm diameter regions of peripheral retina from frozen donor eyes are dissected. Following defrosting, the neuronal retina and the RPE cells are removed by gentle agitation in PBS buffer. Following removal of the RPE cells, strips of the Bruch membrane are cut from the eye. 4 samples are prepared: 1) Control […] Samples are then washed 3 times and the labeling visualized using a fluorescence and confocal microscope. A repeat of this procedure is performed with the exception that samples are incubated for a period of 15 hours before washing to determine differential metal binding over this longer period. The test results are in the form of fluorescence imaging from a confocal microscope of the 4 samples tested in this Example after 15 hours of sample incubation. […] Fluorescence microscopic photographs (which are in colour) are available upon request from the […].

T2 sequence (P05067 672-713 limits assumed): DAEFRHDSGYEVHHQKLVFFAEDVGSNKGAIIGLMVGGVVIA
T1 sequence (P05067 672-713 limits assumed): as above

Row | Structure (SMILES) | ElogD (E) [1] | Tg Mice % difference from control in Amyloid plaque abundance (Aβ deposits) | Tg Mice % difference from control in insoluble brain amyloid burden (Aβ deposits) | Tg Mice % difference from control in soluble brain amyloid burden (Aβ deposits) | Disaggregation % Aggregate reduction at 5 μM [2] [%] | EC50 [2] [nM] | BAS max effect [3] [%] | IC50 (Aβ 1-42) [nM] | Cytotox (% viable) Neuronal cells at 1 μM [4] [%] | Cytotox (% viable) Neuronal cells at 10 μM [4] [%] | Mice plasma concentration [5] | CuTy % inhibition of dityrosine oligomerization [6] | Cytotox (% viable) M17 cells at 1 μM [7] [%] | Cytotox (% viable) M17 cells at 10 μM [7] [%] | Toxicity at 30 mg/kg [8] | Tg Mice effect on brain amyloid burden and plaque at 10 mg/kg (Aβ deposits; daily oral gavage 10 mg/kg) | Mice plasma concentration at 10 mg/kg ([5]; oral dose 10 mg/kg) | Toxicity at 10 mg/kg ([8]; 10 mg/kg) | Toxicity at 30 mg/kg [9] | ZP1 (zinc sensor) labeling of post mortem Bruch membrane [10]
1 | O=C(NCCc1c[nH]cn1)c1ccc2c(Cl)cc(Cl)c(O)c2n1 [PB 1038] | 2.92 | Decrease | Decrease | Increase | 51.3 | 4850 | 627 | 260 | 91 | 84 | Up to 2694 ng/ mL ng/mL | – | – | – | – | – | – | – | – | –
2 | O=c1c2ccc(I)c(O)c2ncn1CC1CC1 [PB 1120] | – | Decrease | No change | No change | 47.5 | 5600 | – | 280 | – | – | Up to 2508 ng/ mL ng/mL | CuTy: 25% inhibition | 106.9 | 62 | 10 days, none | – | – | – | – | –
3 | CCc1cnc2c(O)c(I)ccn2c1=O [PB 1127] | – | – | – | – | 55 | 4500 | – | 280 | – | – | – | 25% inhibit | 82.5 | 23.3 | – | At 10 mg/kg No effect | At 10 mg/kg: Up to 7082 ng/ mL ng/mL | At 10 mg/kg 10 days, none | – | –
4 | CCn1cnc2c(O)c(I)cc(Cl)c2c1=O [PB 1138] | – | – | – | – | 53 | 4700 | – | 300 | – | – | Up to 1802 ng/ mL ng/mL | – | 99.7 | 68.2 | – | – | – | – | 10 days, 2/4 deaths | –
5 | CC(C)c1cnc2c(O)c(I)ccn2c1=O [PB 1142] | – | – | – | – | 42 | 7100 | – | 370 | – | – | – | – | 96.7 | 44.2 | – | – | – | – | 10 days, 1/4 death | –
6 | CCCCc1cnc2c(O)c(I)ccn2c1=O [PB 1145] | – | – | – | – | 28 | 7200 | – | 660 | – | – | – | – | 101.7 | 58.7 | – | – | – | – | 10 days, 2/4 death | –
7 | CCCCc1cnc2c(O)cccn2c1=S [PB 1148] | – | – | – | – | 70 | 1550 | – | 410 | – | – | Up to 57 ng/ml ng/mL | – | – | – | – | – | – | – | 7 days, 2/4 deaths | –
8 | CCCc1cnc2c(O)cccn2c1=O [PB 1149] | – | −45% | No change | No change | 49 | 5000 | – | 300 | 86.2 | 12.4 | Up to 690 ng/ml ng/mL | CuTy: 95% inhibition | 79.1 | 45.2 | 10 days, none | – | – | – | – | –
9 | CC(C)n1cnc2c(O)c(I)ccc2c1=O [PB 1153] | – | – | – | – | 53 | 4700 | – | 320 | – | – | Up to 277 ng/ml ng/mL | – | – | – | – | – | – | – | 10 days, 1/4 deaths | –
10 | O=c1c2ccc(I)c(O)c2ncn1-c1ccc(F)cc1F [PB 1157] | – | – | – | – | 45 | 8100 | – | 380 | – | – | – | – | 90.3 | 80.3 | – | – | – | – | 6 days, 2/4 deaths | –
11 | O=C(NCc1ccc(F)cc1)c1cnc2c(O)c(I)ccn2c1=O [PB 1158] | – | – | – | – | 10 | > 20000 | – | 990 | – | – | – | – | 104.7 | 56 | – | – | – | – | 7 days, 4/4 deaths | –
12 | CCCCNC(=O)c1cnc2c(O)c(I)ccn2c1=O [PB 1160] | – | decrease | No change | −25% | 56.8 | 4050 | – | 750 | – | – | Up to 27,598 ng/mL | CuTy: 95% inhibition | 85.3 | 63.4 | 10 days, none | – | – | – | – | –
13 | CCn1cnc2c(O)c(I)ccc2c1=S [PB 1168] | – | – | – | – | 70 | 1110 | – | 400 | – | – | Up to 400 ng/ ml ng/mL | – | 85.7 | 43 | – | – | – | – | 10 days, none, 1/4 mild signs | –
14 | Nc1cc(Cn2cnc3c(O)c(Cl)cc(Cl)c3c2=O)ccn1 [PB 1250] | – | – | – | – | – | – | – | 480 | – | – | – | CuTy: 80% inhibition | 114.8 | 100.7 | – | – | – | – | 10 days, 1/4 deaths | –
15 | c1ccc(CN(CCN(Cc2ccccn2)Cc2ccccn2)Cc2ccccn2)nc1 [TPEN, reference compound] | – | – | – | – | – | – | – | – | – | – | – | – | – | – | – | – | – | – | – | inhibited ZP1 labeling
